According to ChEMBL document CHEMBL6109109, “Fatty acid binding protein 5 inhibitors as novel anticancer agents against metastatic castration-resistant prostate cancer” (Bioorg Med Chem, 2025):

How the values were obtained:
[1] = system: PC-3; experiment: Cytotoxicity against human PC-3 cells assessed as reduction in cell viability measured after 72 hrs by MTT assay; format: functional, cell-based; conditions: PC-3, 72 h
[2] = Cytotoxicity against mouse RCap cells assessed as reduction in cell viability measured after 72 hrs by MTT assay; format: functional, cell-based
[3] = Binding affinity to FABP5 (unknown origin); design: species or system Homo sapiens
[4] = system: PC-3; experiment: Cytotoxicity against human PC-3 cells assessed as cell growth inhibition at 10 uM measured after 72 hrs by MTT assay relative to control; format: functional; conditions: read-out: GI
[5] = system: PC-3; experiment: Cytotoxicity against human PC-3 cells assessed as cell growth inhibition at 5 uM measured after 72 hrs by MTT assay relative to control; format: functional; conditions: read-out: GI
[6] = system: PC-3; experiment: Synergistic anticancer activity against human PC-3 cells assessed as cell growth inhibition at 20 uM measured after 72 hrs in presence of 0.00001 uM of topotecan by MTT assay relative to control; format: functional; conditions: read-out: GI
[7] = system: PC-3; experiment: Synergistic anticancer activity against human PC-3 cells assessed as cell growth inhibition at 20 uM measured after 72 hrs in presence of 0.0001 uM of topotecan by MTT assay relative to control; format: functional; conditions: read-out: GI
[8] = system: PC-3; experiment: Synergistic anticancer activity against human PC-3 cells assessed as cell growth inhibition at 20 uM measured after 72 hrs in presence of 0.001 uM of topotecan by MTT assay relative to control; format: functional; conditions: read-out: GI
[9] = system: PC-3; experiment: Synergistic anticancer activity against human PC-3 cells assessed as cell growth inhibition at 20 uM measured after 72 hrs in presence of 0.1 uM of topotecan by MTT assay relative to control; format: functional; conditions: read-out: GI
[10] = system: PC-3; experiment: Synergistic anticancer activity against human PC-3 cells assessed as cell growth inhibition at 20 uM measured after 72 hrs in presence of 1 uM of topotecan by MTT assay relative to control; format: functional; conditions: read-out: GI
[11] = system: PC-3; experiment: Synergistic anticancer activity against human PC-3 cells assessed as cell growth inhibition at 20 uM measured after 72 hrs in presence of 10 uM of topotecan by MTT assay relative to control; format: functional; conditions: read-out: GI
[12] = system: PC-3; experiment: Synergistic anticancer activity against human PC-3 cells assessed as cell growth inhibition at 10 uM measured after 72 hrs in presence of 0.001 uM of topotecan by MTT assay relative to control; format: functional; conditions: read-out: GI
[13] = system: PC-3; experiment: Synergistic anticancer activity against human PC-3 cells assessed as cell growth inhibition at 10 uM measured after 72 hrs in presence of 0.01 uM of topotecan by MTT assay relative to control; format: functional; conditions: read-out: GI
[14] = system: PC-3; experiment: Synergistic anticancer activity against human PC-3 cells assessed as cell growth inhibition at 5 uM measured after 72 hrs in presence of 0.00001 uM of topotecan by MTT assay relative to control; format: functional; conditions: read-out: GI
[15] = system: PC-3; experiment: Synergistic anticancer activity against human PC-3 cells assessed as cell growth inhibition at 5 uM measured after 72 hrs in presence of 0.0001 uM of topotecan by MTT assay relative to control; format: functional; conditions: read-out: GI
[16] = system: PC-3; experiment: Synergistic anticancer activity against human PC-3 cells assessed as cell growth inhibition at 5 uM measured after 72 hrs in presence of 0.001 uM of topotecan by MTT assay relative to control; format: functional; conditions: read-out: GI
[17] = system: PC-3; experiment: Synergistic anticancer activity against human PC-3 cells assessed as cell growth inhibition at 5 uM measured after 72 hrs in presence of 0.01 uM of topotecan by MTT assay relative to control; format: functional; conditions: read-out: GI
[18] = Cytotoxicity against mouse RCaP cells assessed as cell growth inhibition at 20 uM measured after 72 hrs by MTT assay relative to control; format: functional; conditions: read-out: GI
[19] = Cytotoxicity against mouse RCaP cells assessed as cell growth inhibition at 5 uM measured after 72 hrs by MTT assay relative to control; format: functional; conditions: read-out: GI
[20] = Cytotoxicity against mouse RCaP cells assessed as cell growth inhibition at […] measured after 72 hrs by MTT assay relative to control; format: functional; conditions: dose 2.5 µM, read-out: GI
[21] = Synergistic anticancer activity against mouse RCaP cells assessed as cell growth inhibition at 20 uM measured after 72 hrs in presence of 0.00001 uM of topotecan by MTT assay relative to control; format: functional; conditions: read-out: GI
[22] = Synergistic anticancer activity against mouse RCaP cells assessed as cell growth inhibition at 10 uM measured after 72 hrs in presence of 0.00001 uM of topotecan by MTT assay relative to control; format: functional; conditions: read-out: GI
[23] = Synergistic anticancer activity against mouse RCaP cells assessed as cell growth inhibition at 10 uM measured after 72 hrs in presence of 0.1 uM of topotecan by MTT assay relative to control; format: functional; conditions: read-out: GI
[24] = Synergistic anticancer activity against mouse RCaP cells assessed as cell growth inhibition at 10 uM measured after 72 hrs in presence of 1 uM of topotecan by MTT assay relative to control; format: functional; conditions: read-out: GI
[25] = Synergistic anticancer activity against mouse RCaP cells assessed as cell growth inhibition at 10 uM measured after 72 hrs in presence of 10 uM of topotecan by MTT assay relative to control; format: functional; conditions: read-out: GI
[26] = Synergistic anticancer activity against mouse RCaP cells assessed as cell growth inhibition at 5 uM measured after 72 hrs in presence of 10 uM of topotecan by MTT assay relative to control; format: functional; conditions: read-out: GI
[27] = system: PC-3; experiment: Induction of apoptosis in human PC-3 cells assessed as viable cells at 15 uM measured after 72 hrs by Annexin V-FITC/propidium iodide staining based FACS analysis (reference value: 97.62%); format: functional; conditions: read-out: Activity
[28] = system: PC-3; experiment: Induction of apoptosis in human PC-3 cells assessed as early apoptotic cells at 15 uM measured after 72 hrs by Annexin V-FITC/propidium iodide staining based FACS analysis (reference value: 0.54%); format: functional
[29] = system: PC-3; experiment: Induction of apoptosis in human PC-3 cells assessed as late apoptotic cells at 15 uM measured after 72 hrs by Annexin V-FITC/propidium iodide staining based FACS analysis (reference value: 1.73%); format: functional
[30] = system: PC-3; experiment: Induction of apoptosis in human PC-3 cells assessed as necrotic cells at 15 uM measured after 72 hrs by Annexin V-FITC/propidium iodide staining based FACS analysis (reference value: 0.11%); format: functional
[31] = system: PC-3; experiment: Synergistic anticancer activity against human PC-3 cells assessed as cell growth inhibition at […] measured after 72 hrs in presence of 0.001 uM of topotecan by MTT assay relative to control; format: functional; conditions: dose 2.5 µM, read-out: GI
[32] = system: PC-3; experiment: Synergistic anticancer activity against human PC-3 cells assessed as cell growth inhibition at […] measured after 72 hrs in presence of 1 uM of topotecan by MTT assay relative to control; format: functional; conditions: dose 2.5 µM, read-out: GI
[33] = system: PC-3; experiment: Synergistic anticancer activity against human PC-3 cells assessed as cell growth inhibition at 1.25 uM measured after 72 hrs in presence of 0.00001 uM of topotecan by MTT assay relative to control; format: functional; conditions: read-out: GI
[34] = Cytotoxicity against mouse RCaP cells assessed as cell growth inhibition at 0.625 uM measured after 72 hrs by MTT assay relative to control; format: functional; conditions: read-out: GI
[35] = Synergistic anticancer activity against mouse RCaP cells assessed as cell growth inhibition at 1.25 uM measured after 72 hrs in presence of 1 uM of topotecan by MTT assay relative to control; format: functional; conditions: read-out: GI
[36] = Synergistic anticancer activity against mouse RCaP cells assessed as cell growth inhibition at 0.625 uM measured after 72 hrs in presence of 0.001 uM of topotecan by MTT assay relative to control; format: functional; conditions: read-out: GI

Row | Structure (SMILES) | IC50 [1] [µM] | inhibition of growth at 10 µM [4] [%] | inhibition of growth at 5 µM [5] [%] | inhibition of growth at 20 µM [6] [%] | inhibition of growth at 20 µM [7] [%] | inhibition of growth at 20 µM [8] [%] | inhibition of growth at 20 µM [9] [%] | inhibition of growth at 20 µM [10] [%] | inhibition of growth at 20 µM [11] [%] | inhibition of growth at 10 µM [12] [%] | inhibition of growth at 10 µM [13] [%] | inhibition of growth at 5 µM [14] [%] | inhibition of growth at 5 µM [15] [%] | inhibition of growth at 5 µM [16] [%] | inhibition of growth at 5 µM [17] [%] | inhibition of growth at 20 µM [18] [%] | inhibition of growth at 5 µM [19] [%] | inhibition of growth at […] [20] [%] | inhibition of growth at 20 µM [21] [%] | inhibition of growth at 10 µM [22] [%] | also measured
1 | O=C(O)[C@H]1[C@H](c2ccccc2)[C@H](C(=O)Oc2cc(-c3ccc4c(c3)OCO4)ccc2-c2ccccc2)[C@H]1c1ccccc1 | 9.89 | 57.5 | 28.4 | 98.1 | 89 | 98.4 | 98.5 | 99.3 | 98.2 | 81.1 | 83 | 28.5 | 30.9 | 29.1 | 35.2 | 94.7 | 22.5 | 5.2 | 97.6 | 68.4 | IC50 [2]: 12.3 µM; Ki [3]: 0.66 µM; inhibition of growth at 10 µM [23]: 97.2%; inhibition of growth at 10 µM [24]: 96%; inhibition of growth at 10 µM [25]: 99.9%; inhibition of growth at 5 µM [26]: 99.6%
2 | COc1ccccc1[C@H]1[C@H](C(=O)O)[C@H](c2ccccc2OC)[C@H]1C(=O)Oc1cc(-c2ccc3c(c2)OCO3)ccc1-c1ccccc1 | 6.52 | 66.4 | 30.7 | 99.7 | 99.5 | 99.4 | 99 | 99.1 | 98.8 | 72.4 | 77.4 | 44.3 | 44.1 | 43.5 | 57.7 | 99.7 | 40.6 | 2.8 | 100 | 89.5 | IC50 [2]: 3.44 µM; Ki [3]: 0.65 µM; viability at 15 µM [27]: 25.8%; Activity [28]: 20.86%; Activity [29]: 52.11%; Activity [30]: 1.25%; inhibition of growth at […] [31]: 34.3%; inhibition of growth at […] [32]: 90.5%; inhibition of growth at 1.25 µM [33]: 12.9%; inhibition of growth at 0.625 µM [34]: -2.53%; inhibition of growth at 10 µM [23]: 89.9%; inhibition of growth at 10 µM [24]: 94.8%; inhibition of growth at 10 µM [25]: 97%; inhibition of growth at 5 µM [26]: 99.1%; inhibition of growth at 1.25 µM [35]: 97.6%; inhibition of growth at 0.625 µM [36]: -4.87%
3 | COc1ccccc1[C@H]1[C@H](C(=O)O)[C@H](c2ccccc2OC)[C@H]1C(=O)OCC1c2ccccc2-c2ccccc21 | 10.5 | 30.1 | 7.5 | 99.3 | 99.8 | 99.8 | 99.8 | 99.8 | 92.3 | 60.9 | 64.8 | 24.6 | 27.5 | 28.7 | 34.6 | 98.2 | 8.67 | 5.2 | 98.1 | 76.5 | viability at 15 µM [27]: 88.7%; Activity [28]: 5.38%; Activity [29]: 5.63%; Activity [30]: 0.3%; inhibition of growth at 10 µM [23]: 94.3%; inhibition of growth at 10 µM [24]: 98.3%; inhibition of growth at 10 µM [25]: 99.2%; inhibition of growth at 5 µM [26]: 99.4%
